Laboratory results taken from patent US12492193B2, “Pyrazole derivatives for the treatment of cystic fibrosis” (Fondazione Istituto Italiano Di Tecnologia, priority 2017, dated 2025).

molecular target: T1, mutant CFTR (Homo sapiens, UniProt P13569, DEL508-508); test: Fluorescence (HS-YFP) assay for CFTR activity, corrector assay; type: cell-based; conditions: CFBE41o- and FRT cells with stable expression of mutant CFTR, 24 h compound treatment
T1 construct: expressed in transfected cells
Method in brief: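 Corrector activity: 24 h compound treatment of HS-YFP/mutant-CFTR CFBE41o- or FRT cells, followed by 30 min forskolin 20 μM + genistein 50 μM at 37° C. Iodide influx (100 mM final) was tracked as fluorescence quenching, with dF/dt extrapolated by exponential fitting; EC50 values derived.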

T1 sequence (P13569 with tags, fused parts or gaps DEL508-508): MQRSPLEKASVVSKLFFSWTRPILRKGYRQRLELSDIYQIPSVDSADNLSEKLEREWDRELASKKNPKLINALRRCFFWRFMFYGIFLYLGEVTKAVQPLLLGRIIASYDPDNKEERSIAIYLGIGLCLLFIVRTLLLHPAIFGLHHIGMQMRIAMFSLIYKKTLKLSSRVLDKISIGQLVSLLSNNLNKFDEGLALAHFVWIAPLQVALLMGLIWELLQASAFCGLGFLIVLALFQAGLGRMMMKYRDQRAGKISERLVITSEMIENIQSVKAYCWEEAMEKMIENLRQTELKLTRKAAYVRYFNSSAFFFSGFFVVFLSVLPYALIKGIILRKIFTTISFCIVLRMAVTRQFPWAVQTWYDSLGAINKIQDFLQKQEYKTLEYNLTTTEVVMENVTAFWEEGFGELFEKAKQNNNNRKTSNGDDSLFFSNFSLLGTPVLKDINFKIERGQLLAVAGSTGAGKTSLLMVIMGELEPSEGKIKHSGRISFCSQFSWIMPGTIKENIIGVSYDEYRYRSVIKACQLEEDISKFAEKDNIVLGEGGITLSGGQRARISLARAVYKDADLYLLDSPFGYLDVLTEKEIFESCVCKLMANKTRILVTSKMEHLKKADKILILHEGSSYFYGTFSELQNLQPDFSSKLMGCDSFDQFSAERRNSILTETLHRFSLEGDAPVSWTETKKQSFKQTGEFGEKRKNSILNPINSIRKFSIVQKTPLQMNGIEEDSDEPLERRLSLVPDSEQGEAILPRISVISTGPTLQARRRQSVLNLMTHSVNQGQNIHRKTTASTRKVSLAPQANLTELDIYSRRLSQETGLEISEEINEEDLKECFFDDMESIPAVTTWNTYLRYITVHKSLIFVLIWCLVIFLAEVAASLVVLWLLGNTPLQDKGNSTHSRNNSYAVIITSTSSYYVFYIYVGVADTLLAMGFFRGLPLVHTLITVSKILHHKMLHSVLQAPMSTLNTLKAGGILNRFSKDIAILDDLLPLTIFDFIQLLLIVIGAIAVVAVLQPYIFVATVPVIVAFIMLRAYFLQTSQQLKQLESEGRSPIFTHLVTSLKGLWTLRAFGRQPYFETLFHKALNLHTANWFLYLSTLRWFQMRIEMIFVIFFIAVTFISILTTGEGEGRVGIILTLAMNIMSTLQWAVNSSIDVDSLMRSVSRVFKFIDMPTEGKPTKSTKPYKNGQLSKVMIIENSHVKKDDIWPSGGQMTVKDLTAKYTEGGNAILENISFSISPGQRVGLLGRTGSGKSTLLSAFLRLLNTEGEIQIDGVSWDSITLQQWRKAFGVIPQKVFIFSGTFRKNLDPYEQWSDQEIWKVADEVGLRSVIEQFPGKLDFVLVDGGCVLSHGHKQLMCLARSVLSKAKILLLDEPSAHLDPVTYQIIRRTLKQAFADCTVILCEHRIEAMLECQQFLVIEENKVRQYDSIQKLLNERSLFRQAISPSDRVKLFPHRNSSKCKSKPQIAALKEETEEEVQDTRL

First: CCOC(=O)c1cccc(OCc2c(Cl)c(C)nn2-c2cccc(C(=O)N(C)c3ccc4c(c3)OCO4)c2)c1 [compound 140, Ethyl 3-[[2-[3-[1,3-benzodioxol-5-yl(methyl)carbamoyl]phenyl]-4-chloro-5-methyl-pyrazol-3-yl]methoxy]benzoate]
Second: Cc1nn(-c2cccc(C(=O)N(C)c3ccc4c(c3)OCO4)c2)c(COc2cccc(C(=O)O)c2)c1Cl [compound 143, 3-[[2-[3-[1,3-Benzodioxol-5-yl(methyl)carbamoyl]phenyl]-4-chloro-5-methyl-pyrazol-3-yl]methoxy]benzoic acid]
The EC50 of the first is lower: < 1000 nM for the first, 1000 to 2000 nM for the second. The first is the more potent here.

`CC(C)Oc1c(Cl)c(C(F)(F)F)nn1-c1cccc(C(=O)N(C)c2ccc3c(c2)OCO3)c1` [compound 142, N-(1,3-Benzodioxol-5-yl)-3-[4-chloro-5-isopropoxy-3-(trifluoromethyl)pyrazol-1-yl]-N-methyl-benzamide] and `CN(C(=O)c1cccc(-n2nc(C(F)(F)F)c(Cl)c2OCc2ccc(C(=O)O)cc2)c1)c1ccc2c(c1)OCO2` [compound 159, 4-[[2-[3-[1,3-Benzodioxol-5-yl(methyl)carbamoyl]phenyl]-4-chloro-5-(trifluoromethyl)pyrazol-3-yl]oxymethyl]benzoic acid] cannot be ordered by EC50: < 1000 nM for the first, < 1000 nM for the second.

`CN(C(=O)c1cccc(-n2nc(C(F)(F)F)cc2-c2ccco2)c1)c1ccc2c(c1)OCO2` [compound 147, N-(1,3-Benzodioxol-5-yl)-3-[5-(2-furyl)-3-(trifluoromethyl)pyrazol-1-yl]-N-methyl-benzamide] and `CN(C(=O)c1cccc(-n2nc(C(F)(F)F)cc2-c2cccs2)c1)c1ccc2c(c1)OCO2` [compound 166, N-(1,3-Benzodioxol-5-yl)-N-methyl-3-[5-(2-thienyl)-3-(trifluoromethyl)pyrazol-1-yl]benzamide] cannot be ordered by EC50: < 1000 nM for the first, < 1000 nM for the second.

Compared with `Cc1nc2ccc(N(C)C(=O)c3cccc(-n4nc(C(F)(F)F)c(Cl)c4C)c3)cc2s1` [compound 149, 3-[4-Chloro-5-methyl-3-(trifluoromethyl)pyrazol-1-yl]-N-methyl-N-(2-methyl-1,3-benzothiazol-6-yl)benzamide], `Cc1nc2cc(F)c(N(C)C(=O)c3cccc(-n4nc(C(F)(F)F)c(Cl)c4C)c3)cc2o1` [compound 154, 3-[4-Chloro-5-methyl-3-(trifluoromethyl)pyrazol-1-yl]-N-(5-fluoro-2-methyl-1,3-benzoxazol-6-yl)-N-methyl-benzamide] is lower in EC50: 1000 to 2000 nM for the first, < 1000 nM for the second.

`CCOC(=O)c1ccc(OCc2c(Cl)c(C(F)(F)F)nn2-c2cccc(C(=O)N(C)c3ccc4c(c3)OCO4)c2)cc1` [compound 150, Ethyl 4-[[2-[3-[1,3-benzodioxol-5-yl(methyl)carbamoyl]phenyl]-4-chloro-5-(trifluoromethyl)pyrazol-3-yl]methoxy]benzoate] and `CN(C(=O)c1cccc(-n2nc(C(F)(F)F)c(Cl)c2COc2ccc(C(=O)O)cc2)c1)c1ccc2c(c1)OCO2` [compound 151, 4-[[2-[3-[1,3-benzodioxol-5-yl(methyl)carbamoyl]phenyl]-4-chloro-5-(trifluoromethyl)pyrazol-3-yl]methoxy]benzoic acid] cannot be ordered by EC50: < 1000 nM for the first, < 1000 nM for the second.

`COC(=O)c1ccc(COc2cc(C(F)(F)F)nn2-c2cccc(C(=O)N(C)c3ccc4c(c3)OCO4)c2)cc1` [compound 152, Methyl-4-[[2-[3-[1,3-benzodioxol-5-yl(methyl)carbamoyl]phenyl]-5-(trifluoromethyl)pyrazol-3-yl]oxymethyl]benzoate] and `COC(=O)c1ccc(COc2c(Cl)c(C(F)(F)F)nn2-c2cccc(C(=O)N(C)c3ccc4c(c3)OCO4)c2)cc1` [compound 155, Methyl 4-[[2-[3-[1,3-benzodioxol-5-yl(methyl)carbamoyl]phenyl]-4-chloro-5-(trifluoromethyl)pyrazol-3-yl]oxymethyl]benzoate] cannot be ordered by EC50: < 1000 nM for the first, < 1000 nM for the second.

Compared with `COC(=O)c1ccc(COc2c(Cl)c(C(F)(F)F)nn2-c2cccc(C(=O)N(C)c3cc4c(cc3Cl)OCO4)c2)cc1` [compound 156, Methyl 4-[[4-chloro-2-[3-[(6-chloro-1,3-benzodioxol-5-yl)-methyl-carbamoyl]phenyl]-5-(trifluoromethyl)pyrazol-3-yl]oxymethyl]benzoate], `Cc1c(Cl)c(C(F)(F)F)nn1-c1cccc(C(=O)N(C)c2cc3c(cc2C=O)OCO3)c1` [compound 161, 3-[4-chloro-5-methyl-3-(trifluoromethyl)pyrazol-1-yl]-N-(6-formyl-1,3-benzodioxol-5-yl)-N-methyl-benzamide] is higher in EC50: < 1000 nM for the first, 1000 to 2000 nM for the second. The first is the more potent here.

`CN(C(=O)c1cccc(-n2nc(C(F)(F)F)c(Cl)c2OC2CCN(C(=O)OC(C)(C)C)CC2)c1)c1ccc2c(c1)OCO2` [compound 157, Tert-butyl 4-[2-[3-[1,3-benzodioxol-5-yl(methyl)carbamoyl]phenyl]-4-chloro-5-(trifluoromethyl)pyrazol-3-yl]oxypiperidine-1-carboxylate] and `CCOc1cc(C(F)(F)F)nn1-c1cccc(C(=O)N(C)c2ccc3c(c2)OCO3)c1` [compound 158, N-(1,3-benzodioxol-5-yl)-3-[5-ethoxy-3-(trifluoromethyl)pyrazol-1-yl]-N-methyl-benzamide] cannot be ordered by EC50: < 1000 nM for the first, < 1000 nM for the second.

Compared with `Cc1c(Cl)c(C(F)(F)F)nn1-c1cccc(C(=O)Nc2cc3c(cc2C#N)OCO3)c1` [compound 162, 3-[4-chloro-5-methyl-3-(trifluoromethyl)pyrazol-1-yl]-N-(6-cyano-1,3-benzodioxol-5-yl)benzamide], `Cc1c(Cl)c(C(F)(F)F)nn1-c1cccc(C(=O)N(C)c2cc3c(cc2C#N)OCO3)c1` [compound 163, 3-[4-chloro-5-methyl-3-(trifluoromethyl)pyrazol-1-yl]-N-(6-cyano-1,3-benzodioxol-5-yl)-N-methyl-benzamide] is lower in EC50: > 2000 nM for the first, < 1000 nM for the second.

Going from `CN(C(=O)c1cccc(-n2nc(C(F)(F)F)cc2-c2ccc(Cl)s2)c1)c1ccc2c(c1)OCO2` [compound 164, N-(1,3-Benzodioxol-5-yl)-3-[5-(5-chloro-2-thienyl)-3-(trifluoromethyl)pyrazol-1-yl]-N-methyl-benzamide] to `Cc1nn(-c2cc(C(=O)N(C)c3ccc4c(c3)OCO4)ccn2)c(C(F)(F)F)c1Cl` [compound 170, N-(1,3-Benzodioxol-5-yl)-2-[4-chloro-3-methyl-5-(trifluoromethyl)pyrazol-1-yl]-N-methyl-pyridine-4-carboxamide], the EC50 rises from < 1000 nM to > 2000 nM. The first is the more potent here.

First: O=C(Nc1ccc2c(c1)OCO2)c1cccc(-n2nc(C(F)(F)F)c(Cl)c2C2CC2)c1 [compound 165, N-(1,3-Benzodioxol-5-yl)-3-[4-chloro-5-cyclopropyl-3-(trifluoromethyl)pyrazol-1-yl]benzamide]
Second: Cc1c(Cl)c(C(F)(F)F)nn1-c1cccc(C(=O)N(C)c2cc3c(cc2CO)OCO3)c1 [compound 168, 3-[4-chloro-5-methyl-3-(trifluoromethyl)pyrazol-1-yl]-N-[6-(hydroxymethyl)-1,3-benzodioxol-5-yl]-N-methyl-benzamide]
The EC50 of the first is higher: > 2000 nM for the first, 1000 to 2000 nM for the second.

In the case of `Cc1cc(C(F)(F)F)n(-c2cc(C(=O)N(C)c3ccc4c(c3)OCO4)ccn2)n1` [compound 169, N-(1,3-Benzodioxol-5-yl)-N-methyl-2-[3-methyl-5-(trifluoromethyl)pyrazol-1-yl]pyridine-4-carboxamide], the EC50 is reported as > 2000 nM.
